Measurements taken from US20240261414A1, “FATTY ACID AMIDE HYDROLASE (FAAH) CLEAVABLE PRODRUGS OF BRAIN TARGETING ACTIVES AND COMBINATION WITH PERIPHERALLY RESTRICTED FAAH INHIBITORS” (Autobahn Therapeutics, Inc., priority 2021, published 2024).

These compounds were tested against T1, recombinant human FAAH (rhFAAH) (Homo sapiens, UniProt O00519) (assay: FAAH substrate evaluation (acid metabolite formation)). Details: 0.5 ng/L rhFAAH, 1 μM test compound, Tris-EDTA buffer pH 8.0, room temperature, 0-60 minutes.
T1 construct: purchased Cayman Chemical (Ann Arbor, MI, USA)
T1 sequence (O00519 1-579): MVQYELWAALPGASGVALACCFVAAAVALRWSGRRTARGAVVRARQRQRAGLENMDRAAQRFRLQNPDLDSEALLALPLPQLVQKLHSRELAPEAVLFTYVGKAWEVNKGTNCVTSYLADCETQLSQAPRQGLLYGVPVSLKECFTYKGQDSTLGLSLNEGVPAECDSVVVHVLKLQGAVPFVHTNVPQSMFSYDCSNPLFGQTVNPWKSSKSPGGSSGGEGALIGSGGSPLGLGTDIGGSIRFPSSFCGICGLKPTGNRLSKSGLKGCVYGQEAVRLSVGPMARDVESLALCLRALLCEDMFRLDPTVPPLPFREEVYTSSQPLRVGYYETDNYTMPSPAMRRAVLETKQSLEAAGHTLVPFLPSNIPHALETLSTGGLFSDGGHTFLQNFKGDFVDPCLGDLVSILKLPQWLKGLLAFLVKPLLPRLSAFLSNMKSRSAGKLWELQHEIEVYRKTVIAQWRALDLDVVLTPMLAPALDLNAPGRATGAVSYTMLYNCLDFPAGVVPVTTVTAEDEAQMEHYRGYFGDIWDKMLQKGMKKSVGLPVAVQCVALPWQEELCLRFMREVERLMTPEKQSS
Assay type: biochemical
Procedure: Purified recombinant human FAAH (rhFAAH) was purchased from Cayman Chemical (Ann Arbor, MI, USA). The total volume for each incubation was 400 μL containing a final 0.5 ng/L rhFAAH, 1 μM test compound, 1.25% ethanol or 1 μM PF-3845 (FAAH inhibitor), and 0.1% bovine serum albumin in Tris-EDTA buffer at pH 8.0). The positive control was LL-341001. The incubation was conducted at the room temperature. At 0, 5, 15, 30 and 60 minutes, an aliquot of 30 μL reaction mixtures was removed and mixed with 300 μL acetonitrile containing 5 ng/mL terfenadine and 10 ng/mL tolbutamide as internal standards to quench the reaction. The resulting mixture was centrifuged at 4000 rpm, 4° C. for 15 minutes, and 100 μL supernatant was ready for LC-MS/MS analysis to measure the formation of acid metabolite.
Acquity Ultra Performance LC system from Waters was used for sample analysis. The chromatography was performed on a reverse phase Kinetex 2.6 μm C18 column, 2.1×30 mm, 100 Å. The mobile phase A comprised of 0.1% formic acid in water and mobile phase B comprised of 0.1% formic acid in acetonitrile with a 2-min run time at the flow rate of 0.8 mL/min for the acid metabolite from positive control or a 1.5 min run time at the flow rate of 0.9 mL/min for the acid metabolite of test compounds. The mass spectrometer (API-5500 and API Q Trap 4000 Applied Biosystems/MDS SCIEX Instruments, Framingham, MA, USA) was operated under ESI positive or negative ion MRM mode.
The formation of acid metabolite was monitored and quantified using one calibration point of 1 μM. The observed rate constant (ke) for the acid metabolite formation was calculated by plotting the metabolite concentration versus time of incubation with the slope being ke and is shown in Table 2.

Compound	ke (observed rate constant for the acid metabolite formation)
O=C(Nc1cccnc1)c1ccc2nc(-c3cc(Cl)cc(Cl)c3)oc2c1 [Compound 52]	A (ke is more than or equal to 1.0)
CCCCC[C@H](O)CC[C@@H]1[C@H]2Cc3cccc(OCC(=O)N[C@H]4C[C@H]4F)c3C[C@H]2C[C@H]1O [Compound 49]	C (ke is less than 0.1 and more than 0)
Cc1c(C=CC(=O)NCCO)ccc(OCc2cc(Cl)cc3c2OC(C)(C)C3)c1C [Compound 11, 3-(4-((5-chloro-2,2-dimethyl-2,3-dihydrobenzofuran-7-yl)methoxy)-2,3-dimethylphenyl)-N-(2-hydroxyethyl)propenamide]	A (ke is more than or equal to 1.0)
Cc1c(CCC(=O)Nc2ccncc2)ccc(OCc2cc(Cl)cc3c2OC(C)(C)C3)c1C [Compound 35]	B (ke is less than 1.0 and more than or equal to 0.1)
CCCCC[C@H](O)CC[C@@H]1[C@H]2Cc3cccc(OCC(=O)NC)c3C[C@H]2C[C@H]1O [Compound 13]	D (ke is 0)
O=C(C[C@H]1CCc2c1[nH]c1ccc(OCc3ccc(C4CCCC4)c(C(F)(F)F)c3)cc21)Nc1cccnn1 [Compound 43]	B (ke is less than 1.0 and more than or equal to 0.1)
Cc1noc(-c2ccc(CSCCC(=O)N[C@@H]3C[C@H]3F)cc2)c1NC(=O)OC(C)c1ccccc1Cl (stereo partly shown) [Compound 40]	C (ke is less than 0.1 and more than 0)
Cc1noc(NC(=O)CCSCc2ccc(-c3onc(C)c3NC(=O)OC(C)c3ccccc3Cl)cc2)c1C (stereo not shown) [Compound 34]	D (ke is 0)
O=C(C[C@H]1CCc2c1[nH]c1ccc(OCc3ccc(C4CCCC4)c(C(F)(F)F)c3)cc21)NC1CC1F (stereo partly shown) [Compound 32]	C (ke is less than 0.1 and more than 0)
Cc1c(C=CC(=O)Nc2cccnn2)ccc(OCc2cc(Cl)cc3c2OC(C)(C)C3)c1C [Compound 2, 3-(4-((5-chloro-2,2-dimethyl-2,3-dihydrobenzofuran-7-yl)methoxy)-2,3-dimethylphenyl)-N-(pyridazin-3-yl)propenamide]	B (ke is less than 1.0 and more than or equal to 0.1)
CCCCC[C@H](O)CC[C@@H]1[C@H]2Cc3cccc(OCC(=O)N[C@H]4C[C@@H]4F)c3C[C@H]2C[C@H]1O [Compound 48]	B (ke is less than 1.0 and more than or equal to 0.1)
COc1ccc(NC(=O)c2ccc(F)c(OCCCc3c(C)n[nH]c3C)c2)cn1 [Compound 29]	B (ke is less than 1.0 and more than or equal to 0.1)
COc1ccc(NC(=O)c2ccc3nc(-c4cc(Cl)cc(Cl)c4)oc3c2)nn1 [Compound 37]	B (ke is less than 1.0 and more than or equal to 0.1)
